Three molecules from patent publication US8110565B2, “Enhanced drug delivery in transdermal systems” (Noven Pharmaceuticals, Inc., priority 2001, dated 2012) can be followed below.

The nature of data set [1]: Amount of ramipril solubilized in the carrier formulation without forming crystals. It is filed as physicochemical. From the text:
(§1) Prodrug effects on flux were also studied using an ace inhibitor drug, ramipril. Flux rates of two corresponding prodrugs—ramipril methyl ester and ramipril ethyl ester—were compared prior to combining with the parent drug. […] In either event, the use of an ester prodrug in place of the parent drug can achieve, at the very least, over a 10 fold increase in flux (see ramipril flux (▴) in FIG. 8—only 15% ramipril could be solubilized without forming crystals—versus ramipril ethyl ester flux without enhancers (Δ) in FIG. 9). Use of non-functional or hydroxy functional adhesives are also preferred.

Data set [2] is described as follows: Flux of ramipril, its ester prodrugs and their combinations from carrier formulations (FIGS. 8, 9). It is filed as in vitro ADME.
From the text: as §1, with “preferred. However, when both ramipril and a corresponding prodrug are combined in the formulations containing enhancers, an even higher flux can be obtained.” for “preferred.”

For the molecule `CCOC(=O)[C@H](CCc1ccccc1)N[C@@H](C)C(=O)N1[C@H](C(=O)O)C[C@@H]2CCC[C@@H]21` [ramipril], the “ramipril that could be solubilized without forming crystals” value in data set [1] amounted to 15%.
`CCOC(=O)C(CCc1ccccc1)NC(C)C(=O)N1C(C(=O)OCC)CC2CCCC21` (stereo not shown) [ramipril ethyl ester]: in data set [2] (ester without enhancers (FIG. 9) versus 15% ramipril (FIG. 8)), the “increase in flux over the parent drug ramipril” value is over 10 fold.
Take `CCOC(=O)[C@H](CCc1ccccc1)N[C@@H](C)C(=O)N1[C@H](C(=O)OC)C[C@@H]2CCC[C@@H]21` [ramipril methyl ester]: the “flux compared with the ethyl ester derivative” value in data set [2] was “fluxed higher”. Moreover, the “flux higher than the ethyl ester prodrug” value in data set [2] (without permeation enhancers, 20% drug, 20% polyacrylate adhesive, 60% polysiloxane adhesive, FIG. 9) is listed as 73%.
